The source of these data is publication PMC9012943, “Oral remdesivir derivative VV116 is a potent inhibitor of respiratory syncytial virus with efficacy in mouse model” (Signal Transduction and Targeted Therapy, 2022).

For orientation: Cmax means the maximum level reached in the sampled fluid or tissue. The half-life is the time needed for the level to fall by half in the phase considered. In general, CC50 refers to the concentration that lowers cell viability or growth by half. What is called EC90 is the concentration at which the effect reaches the 90% level. In general, EC50 refers to the concentration at which the effect is half-maximal. Higher therefore signals lower potency in that assay.

Read-outs that look alike come from different tables or passages of the source. Some results are limits rather than exact numbers.

Series [1] can be described thus: Pharmacokinetic study in Balb/c mice. Type of series: in vivo. The following applies: for Cmax: X1 in blood. As to the method: A total of nine Balb/c mice (N = 3 for each group, male) were divided into three groups, and fasted for 12 h before dosing. The three groups received oral dose of VV116 dissolved in 40%PEG400+10% Kolliphor® HS15+50% ultrapure water at 25 mg/kg, 50 mg/kg and 100 mg/kg, respectively. At 5 min, 0.25, 0.5, 1.0, 2.0, 4.0, 6.0, 8.0, and 24 h post-dosing, blood samples were collected from the jugular vein or the submandibular vein into EDTA-K2 tubes, and immediately mixed with acetonitrile (20 µL blood + 80 μL acetonitrile). The concentrations of analytes in the blood were analyzed by LC-MS/MS.

Series [2] can be described thus: Cellular toxicity in A549 cells (WST-8 cell viability). The following applies: human; A549 cells, 48 h; read-out: CC50. It counts as cell-based. As to the method:
Cell viability was performed in 96-well plate with triplicate for each concentration. All drugs were diluted 2 times with 9 gradients starting at 500 micromores in maintenance medium (DMEM containing 2% FBS). After 48 h incubation, the supernatant was removed, and 10 μL WST-8 (2-(2-methoxy-4-(phenyl)-3-(4-(phenyl) to 5 (2, 4-sulpho benzene) -2 h-tetrazolium monosodium salt) in maintenance medium was added in medium. Plates were measured at 450 nm wavelength using spectrophotometer (BioTek) after 2 h incubation, and cell viability was calculated.
(In general: Formazan colour is commonly taken as a measure of viable cells.)

Series [3] is described as follows: Tissue distribution study in Balb/c mice. It counts as in vivo. The following applies: VV116 oral 100 mg/kg. As to the method:
A total of thirty Balb/c mice were divided into five groups (3 animals/sex/group). VV116 was intragastrically administered at 100 mg/kg dissolved in 40%PEG400+10% Kolliphor® HS15+50%. At 0 (not administered), 0.25, 2, 6, and 24 h post-dosing, the five groups of mice were anesthetized, respectively. Blood samples were collected, and tissues including liver and lung were harvested. Tissue samples were individually homogenized, and blood samples were processed as above. The concentrations of X1 in liver, lung and blood were analyzed by LC-MS/MS.

A short description of series [4]: Toxicokinetics in SD rats. Type of series: in vivo. The procedure:
Groups of male and female SD rats (4 animals/sex/group) received repeated oral doses of VV116 (dissolved in 40%PEG400+10% Kolliphor® HS15+50% ultrapure water) at 100 (low), 200 (mild) and 500 mg/kg/d (high) for 14 days. At day 1 and day 14, blood samples were collected from the jugular vein into EDTA-K2 tubes at various time points post-dose. Plasma samples were obtained following general procedures and the concentrations of analytes in the samples were analyzed by LC-MS/MS.

The test system of another series is RSV A2. The experiment in a line: Inhibition of RSV A2 replication in A549 cells (qRT-PCR). Type of series: cell-based, respiratory syncytial virus. As to the method: A549, HEp-2 or NHBE cells were plated into 48 well-plate and incubated overnight. Upon reaching 80% cell confluence, cells were infected RSV A2 (at an MOI of 2 in A549, MOI of 0.5 in HEp-2, and MOI of 1 in NHBE cells) for 2 h after cells were incubated for 1 h with varying concentrations of drugs. Then, the virus-drug mixture was removed, and cells were cultured with drug-containing medium. At 48 h post inoculation, total RNAs were extracted from cells and then in reverse transcription using PrimeScript RT reagent Kit with gDNA Eraser (TaKaRa). For determining the viral copies, absolute quantitative RT-PCR was performed with TB Green® Premix Ex Taq^TM II (TaKaRa). RSV A2 F fragment was quantified with primers 5’-[…]-3’; and 5’-[…]-3’
A general note: Real-time PCR tracks product formation cycle by cycle.

Take `[2H]c1cc([C@]2(C#N)O[C@H](CO)[C@@H](O)[C@H]2O)n2ncnc(N)c12` [X1]: the “Time for blood concentration of X1 to reach Cmax” value in series [1] (Balb/c mice, following oral administration of VV116) is at most 0.5 h. Besides, the highest concentration (Cmax) in series [1] (male, mouse, whole blood, po, Balb/c mice, VV116 p.o. 25 mg/kg, read-out: Cmax) was determined as 5360 ng/mL; in series [1] (male, mouse, whole blood, Balb/c mice, VV116 oral 25 mg/kg, read-out: mean Cmax), 18.4 µM. Moreover, the half-life in series [1] (male, mouse, whole blood, X1, Balb/c mice, VV116 oral 25 to 100 mg/kg, read-out: elimination half-life) was in the range of 2.3 to 4.25 h. Further, in series [2], the cytotoxic concentration (CC50) at 48 h was above 500 µM. Further, the “concentration of X1 in the lung relative to that in the liver” value in series [3] is reported as “about half”. For the same molecule, the AUC0-t in series [4] (both sexes, rat, plasma, po, X1, SD rats, VV116 p.o. 200 mg/kg, Total, Day 1) worked out at 85200 ng·h/mL. Moreover, the “AUC0–t of X1 at rat NOAEL (200 mg/kg) relative to that at 50 mg/kg in mice” value in series [4] (in vivo) is ~ 3.5 folds. For the same molecule, the SI in the series with RSV A2 is above 314. The molecule also showed a 90% effect concentration (EC90) in the series on RSV A2 (human respiratory syncytial virus, RSV A2) of 3.56 ± 0.63 µM. For the same molecule, the concentration giving a half-maximal response (EC50) with RSV A2 (human respiratory syncytial virus, RSV A2 MOI 2, 48 h) was determined as 1.59 ± 0.49 µM.
